# Earlier results in patent publication US20030228375A1 (priority 2002, published 2003).
# Like-named read-outs stand apart in the source and are kept apart here.
# What was measured:
# [1] = supplementation
# [2] = in vivo
# [3] = supplementation; remark: listed apart in the source
# [4] = test system: young female rats
# [5] = biological target: T1, aromatase (Homo sapiens, UniProt P11511); conditions: compared with chrysin, AG and ANG
# T1 sequence (P11511 1-503): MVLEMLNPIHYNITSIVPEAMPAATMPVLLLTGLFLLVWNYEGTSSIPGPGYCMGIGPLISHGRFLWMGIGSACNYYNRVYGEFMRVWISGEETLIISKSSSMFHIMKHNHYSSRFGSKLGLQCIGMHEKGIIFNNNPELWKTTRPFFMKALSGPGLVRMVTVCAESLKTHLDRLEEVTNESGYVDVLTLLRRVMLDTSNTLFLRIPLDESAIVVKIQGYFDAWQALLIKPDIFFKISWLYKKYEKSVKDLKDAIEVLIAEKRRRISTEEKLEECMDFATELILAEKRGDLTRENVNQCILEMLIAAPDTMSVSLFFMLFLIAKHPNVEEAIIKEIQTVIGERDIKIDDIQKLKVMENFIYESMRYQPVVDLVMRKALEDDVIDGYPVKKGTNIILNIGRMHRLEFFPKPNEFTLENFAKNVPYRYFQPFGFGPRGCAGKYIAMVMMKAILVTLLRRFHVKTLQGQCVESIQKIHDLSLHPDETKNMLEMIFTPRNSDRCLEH
# [6] = test system: people with panhypopituitarism
# [7] = test system: hypogonadal men; conditions: for waking erection: Asian group; for sexual interest and activity, spontaneous erection: Caucasian group
# [8] = test system: prostate and seminal vesicle weights
# [9] = test system: levator ani muscles
# [10] = test system: healthy young men; conditions: 300 mg/wk for six weeks; TE shoulders, ND shoulders and chest
# [11] = test system: HIV-infected men; conditions: pharmacological doses
# [12] = body builders
# [13] = test system: patients on dialysis; conditions: compared with placebo
# [14] = nandrolone use
structure (smiles),measurement,setting,value
C[C@]12CC[C@H]3[C@@H](CCC4=C[C@@H](O)CC[C@@]43C)[C@@H]1CC[C@@H]2O [4-androstenediol],urine testosterone concentration relative to 4-androstenedione,[1],10 fold
same,human serum testosterone levels,[2],elevations in human serum testosterone levels
C[C@]12CCC(=O)C=C1CC[C@@H]1[C@@H]2CC[C@]2(C)C(=O)CC[C@@H]12 [4-androstenedione],serum testosterone,[3],elevations in serum testosterone
C[C@]12CC[C@H]3[C@@H](CC=C4C[C@@H](O)CC[C@@]43C)[C@@H]1CC[C@@H]2O [5-androstenediol],proportion of protein in the body composition,[4],increased the proportion of protein
"COc1ccc(-c2coc3cc(O)cc(O)c3c2=O)cc1 [Biochanin A, 5,7-dihydroxy-4′-methoxyisoflavone]",aromatase inhibition,[5],"inhibited aromatase, but to a lesser degree"
"C[C@]12CC[C@H](O)CC1=CC[C@@H]1[C@@H]2CC[C@]2(C)C(=O)CC[C@@H]12 [DHEA, dehydro-epiandrosterone]",plasma testosterone,[6]; 50 mg dose,restored plasma testosterone to levels similar to those observed in young women
same,"plasma estrogens, particularly estradiol",[6]; 50 mg or 200 mg,significant and dose dependent increase
same,plasma testosterone,[6]; 200 mg dose,slightly below the levels observed in normal men
"C[C@@H]1CC2=CC(=O)CC[C@@H]2[C@H]2CC[C@]3(C)[C@@H](O)CC[C@H]3[C@@H]21 [MENT, 7α-methyl-19-nor-testosterone]",waking erection,[7],increased waking erection
same,"sexual interest and activity, spontaneous erection",[7],significant increases
same,androgenic potency relative to testosterone,[8],four- to five-times more androgenic than testosterone
same,anabolic potency relative to testosterone,[9],ten-times as potent as testosterone
"CCCCCCCCCC(=O)O[C@H]1CC[C@H]2[C@@H]3CCC4=CC(=O)CC[C@@H]4[C@H]3CC[C@]12C [ND, 19-nor-testosterone decanoate]",body circumferences (of fifteen),[10],significant increases
same,"total weight, lean body mass, body cell mass, muscle size and strength",[11],significant gains
"CCCCCCC(=O)O[C@H]1CC[C@H]2[C@@H]3CCC4=CC(=O)CC[C@]4(C)[C@H]3CC[C@]12C [TE, testosterone enanthate]",waking erection,[7],increased waking erection
same,"sexual interest and activity, spontaneous erection",[7],significant increases
same,body circumferences (of fifteen),[10],significant increases
"C[C@]12CC[C@H]3[C@@H](CCC4=CC(=O)CC[C@@H]43)[C@@H]1CC[C@@H]2O [nandrolone, 19-nor-testosterone]",energy expenditure,[4],increased energy expenditure
same,decrease in HDL-cholesterol,[12],25-27%
same,lean body mass,[13],increased significantly
same,effect on sperm,[14],azoospermia
C[C@]12CC[C@H]3[C@@H](CCC4=CC(=O)CC[C@@]43C)[C@@H]1CC[C@@H]2O [testosterone],proportion of protein in the body composition,[4],increased the proportion of protein
